# From article PMC4399811 (Bioorganic & medicinal chemistry letters, 2015)
# Tests used:
# rat mGlu5 receptors = rat mGlu5 receptors (Rattus norvegicus, UniProt P31424); experiment: 'triple add' calcium mobilization assay, mGlu5 PAM/NAM/agonist modes; type: cell-based; settings: for fold increase in mGlu5 potency vs series 3 counterpart: dihydro analogue 4 vs corresponding analogue 3
# rats = experiment: adverse effects in rats; type: in vivo, rat
# [1] = solubility in fasted simulated intestinal fluid; type: physicochemical; settings: fasted simulated intestinal fluid (FaSSIF), pH 7.2, fassif
# mGlu3 [2] = target: T1, mGlu3 (Homo sapiens, UniProt Q14832); experiment: cell-based
# mGlu3 [3] = target: T1, mGlu3; settings: NAM
# dogs = experiment: adverse effects in in vivo PK studies in dogs; parameters: species or system dog; settings: 0.5 mg/mL i.v.
# [4] = system: other mGlu receptors (mGlu1–4,6–8, except mGlu3); experiment: selectivity profiling against the other mGlu receptors; type: cell-based; settings: read-out: other mGlu EC50; mGlu receptors other than mGlu5 and mGlu3
# [5] = system: amphetamine-induced hyperlocomotion; experiment: reversal of amphetamine-induced hyperlocomotion; settings: rat
# in vivo PK study in rats = settings: rat
# CYP1A2 = target: T2, CYP1A2 (Homo sapiens, UniProt P05177); experiment: CYP inhibition cocktail assay using HLM and known substrates
# T2 sequence (P05177 1-516): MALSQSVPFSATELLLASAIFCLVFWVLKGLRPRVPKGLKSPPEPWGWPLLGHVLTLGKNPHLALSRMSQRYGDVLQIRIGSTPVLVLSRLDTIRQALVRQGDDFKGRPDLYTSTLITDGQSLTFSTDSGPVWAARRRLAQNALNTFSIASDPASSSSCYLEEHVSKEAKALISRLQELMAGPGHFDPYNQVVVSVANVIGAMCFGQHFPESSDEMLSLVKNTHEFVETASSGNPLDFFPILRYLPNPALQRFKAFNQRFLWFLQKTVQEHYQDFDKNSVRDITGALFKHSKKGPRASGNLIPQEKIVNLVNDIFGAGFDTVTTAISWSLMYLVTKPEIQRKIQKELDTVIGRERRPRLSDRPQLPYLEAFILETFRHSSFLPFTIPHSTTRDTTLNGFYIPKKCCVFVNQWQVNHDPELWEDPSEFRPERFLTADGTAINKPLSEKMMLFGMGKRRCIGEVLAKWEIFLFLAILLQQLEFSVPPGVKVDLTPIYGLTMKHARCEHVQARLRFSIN
# CYP2D6 = CYP2D6 (Homo sapiens, UniProt P10635); experiment: as above
# CYP2C9 = CYP2C9 (Homo sapiens, UniProt P11712); experiment: as above
# CYP3A4 = CYP3A4 (Homo sapiens, UniProt P08684); experiment: as above
# Sequence of CYP3A4 (P08684 whole entry): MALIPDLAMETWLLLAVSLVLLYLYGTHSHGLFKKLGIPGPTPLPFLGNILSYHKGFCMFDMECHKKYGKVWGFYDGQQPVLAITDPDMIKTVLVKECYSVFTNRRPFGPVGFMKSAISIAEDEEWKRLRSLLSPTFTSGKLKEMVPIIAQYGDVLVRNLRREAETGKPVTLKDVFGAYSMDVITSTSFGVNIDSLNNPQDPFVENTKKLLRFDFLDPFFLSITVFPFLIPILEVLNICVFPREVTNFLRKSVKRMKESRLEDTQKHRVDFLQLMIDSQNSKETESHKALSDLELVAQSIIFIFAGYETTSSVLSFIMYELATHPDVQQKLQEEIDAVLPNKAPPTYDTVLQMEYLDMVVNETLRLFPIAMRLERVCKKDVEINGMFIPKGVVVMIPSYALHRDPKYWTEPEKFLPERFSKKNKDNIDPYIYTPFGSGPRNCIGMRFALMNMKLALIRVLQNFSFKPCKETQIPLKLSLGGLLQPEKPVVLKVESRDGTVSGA
# T1 sequence (Q14832 23-879): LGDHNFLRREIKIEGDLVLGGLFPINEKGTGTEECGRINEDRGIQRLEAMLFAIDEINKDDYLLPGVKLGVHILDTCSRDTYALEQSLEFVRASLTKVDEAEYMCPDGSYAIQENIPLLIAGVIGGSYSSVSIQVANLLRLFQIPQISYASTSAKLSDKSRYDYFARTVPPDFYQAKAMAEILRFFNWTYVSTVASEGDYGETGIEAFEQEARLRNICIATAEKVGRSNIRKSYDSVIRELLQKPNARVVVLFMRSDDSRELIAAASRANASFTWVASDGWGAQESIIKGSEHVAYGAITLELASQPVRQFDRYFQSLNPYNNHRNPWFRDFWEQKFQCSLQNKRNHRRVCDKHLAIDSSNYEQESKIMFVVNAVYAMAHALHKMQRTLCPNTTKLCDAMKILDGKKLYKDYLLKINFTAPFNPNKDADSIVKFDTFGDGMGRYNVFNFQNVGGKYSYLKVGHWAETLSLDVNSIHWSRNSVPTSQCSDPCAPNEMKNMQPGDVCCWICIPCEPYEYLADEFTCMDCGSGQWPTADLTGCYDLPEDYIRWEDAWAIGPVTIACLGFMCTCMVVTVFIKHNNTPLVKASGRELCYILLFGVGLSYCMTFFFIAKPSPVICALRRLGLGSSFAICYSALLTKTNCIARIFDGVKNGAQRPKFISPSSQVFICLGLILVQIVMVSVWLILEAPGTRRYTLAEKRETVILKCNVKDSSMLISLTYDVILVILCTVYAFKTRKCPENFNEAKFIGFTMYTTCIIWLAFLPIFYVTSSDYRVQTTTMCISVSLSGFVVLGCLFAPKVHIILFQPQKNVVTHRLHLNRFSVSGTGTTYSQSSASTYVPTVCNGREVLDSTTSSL
# Sequence of rat mGlu5 receptors (P31424 21-1203): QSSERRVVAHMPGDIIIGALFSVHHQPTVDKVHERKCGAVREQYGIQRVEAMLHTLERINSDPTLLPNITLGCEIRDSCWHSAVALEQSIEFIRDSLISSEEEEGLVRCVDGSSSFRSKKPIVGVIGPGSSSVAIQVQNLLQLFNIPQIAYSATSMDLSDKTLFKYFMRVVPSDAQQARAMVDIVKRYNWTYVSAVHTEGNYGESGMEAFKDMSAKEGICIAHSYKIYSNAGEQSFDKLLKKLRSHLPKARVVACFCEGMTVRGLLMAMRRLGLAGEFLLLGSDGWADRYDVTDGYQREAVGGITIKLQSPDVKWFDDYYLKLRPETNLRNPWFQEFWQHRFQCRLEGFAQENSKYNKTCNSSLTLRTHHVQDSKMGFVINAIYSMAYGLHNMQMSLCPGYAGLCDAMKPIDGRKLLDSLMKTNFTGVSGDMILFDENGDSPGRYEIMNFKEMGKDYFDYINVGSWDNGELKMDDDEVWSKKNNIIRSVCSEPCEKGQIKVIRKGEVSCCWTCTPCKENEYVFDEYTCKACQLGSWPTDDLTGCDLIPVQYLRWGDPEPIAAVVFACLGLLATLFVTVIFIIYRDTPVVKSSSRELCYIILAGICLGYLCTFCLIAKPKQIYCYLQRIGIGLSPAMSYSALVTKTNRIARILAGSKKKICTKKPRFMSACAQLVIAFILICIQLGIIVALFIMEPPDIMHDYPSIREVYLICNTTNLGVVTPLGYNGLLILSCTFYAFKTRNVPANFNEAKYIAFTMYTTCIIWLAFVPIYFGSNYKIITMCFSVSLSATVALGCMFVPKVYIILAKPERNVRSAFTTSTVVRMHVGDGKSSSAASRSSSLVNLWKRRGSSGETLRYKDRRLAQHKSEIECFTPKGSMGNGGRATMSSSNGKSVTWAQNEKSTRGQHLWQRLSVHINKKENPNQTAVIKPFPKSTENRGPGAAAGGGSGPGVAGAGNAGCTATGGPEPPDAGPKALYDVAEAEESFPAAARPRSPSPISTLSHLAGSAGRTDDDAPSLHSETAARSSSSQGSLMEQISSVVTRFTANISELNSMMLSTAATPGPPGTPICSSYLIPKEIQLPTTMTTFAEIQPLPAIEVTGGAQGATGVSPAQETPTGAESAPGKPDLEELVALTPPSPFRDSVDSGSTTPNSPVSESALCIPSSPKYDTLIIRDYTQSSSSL
# Sequence of CYP2D6 (P10635 whole entry): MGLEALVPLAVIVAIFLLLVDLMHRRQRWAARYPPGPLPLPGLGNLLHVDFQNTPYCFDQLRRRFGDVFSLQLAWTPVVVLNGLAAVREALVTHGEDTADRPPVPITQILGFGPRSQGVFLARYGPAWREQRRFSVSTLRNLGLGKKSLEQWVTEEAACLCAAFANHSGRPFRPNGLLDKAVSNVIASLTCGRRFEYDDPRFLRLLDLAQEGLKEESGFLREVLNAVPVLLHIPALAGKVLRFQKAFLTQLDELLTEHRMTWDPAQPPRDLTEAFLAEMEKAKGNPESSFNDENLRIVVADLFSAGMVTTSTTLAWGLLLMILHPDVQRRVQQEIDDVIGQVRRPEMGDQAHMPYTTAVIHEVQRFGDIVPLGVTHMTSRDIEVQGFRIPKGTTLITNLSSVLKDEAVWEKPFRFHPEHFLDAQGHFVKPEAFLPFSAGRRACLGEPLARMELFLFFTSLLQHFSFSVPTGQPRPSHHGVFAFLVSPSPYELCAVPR
# Sequence of CYP2C9 (P11712 whole entry): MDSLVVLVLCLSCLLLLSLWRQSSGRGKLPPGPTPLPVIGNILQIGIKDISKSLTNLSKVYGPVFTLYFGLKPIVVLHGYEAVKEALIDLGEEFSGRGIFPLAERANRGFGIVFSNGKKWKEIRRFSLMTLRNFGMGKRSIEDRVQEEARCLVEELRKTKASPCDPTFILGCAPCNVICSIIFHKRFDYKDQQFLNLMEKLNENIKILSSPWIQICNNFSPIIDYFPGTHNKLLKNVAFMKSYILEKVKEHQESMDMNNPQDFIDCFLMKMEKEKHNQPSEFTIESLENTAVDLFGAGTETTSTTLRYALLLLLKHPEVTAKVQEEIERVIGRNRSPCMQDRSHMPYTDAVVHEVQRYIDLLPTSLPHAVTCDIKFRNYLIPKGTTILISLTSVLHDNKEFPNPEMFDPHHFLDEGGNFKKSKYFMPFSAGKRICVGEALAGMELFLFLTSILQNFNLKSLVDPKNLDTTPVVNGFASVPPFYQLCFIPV
structure (smiles),measurement,setting,value
O=C1N(c2ccc(F)cc2)CCc2nc(COc3ccc(F)cc3)cn21 [4i],fold increase in mGlu5 potency vs series 3 counterpart,rat mGlu5 receptors,≤ 3.3 fold
O=C1N(c2ccc(F)cc2)CCc2nc(COc3cccc(F)c3)cn21 [4h],fold increase in mGlu5 potency vs series 3 counterpart,rat mGlu5 receptors,≤ 3.3 fold
O=C1N(c2ccc(F)cc2)CCc2nc(COc3ccccc3)cn21 [4a],"CNS-mediated side effects, modified Irwin neurological test battery",rats; 120 mg/kg,pro-convulsive behavior
same,adverse effects in PK and pharmacological experiments,rats; up to 100 mg/kg p.o.,no significant adverse effects
same,solubility,[1],6 µg/mL
same,EC50,mGlu3 [2],0.29 µM
same,mGlu3 % Glu Max,mGlu3 [3],3%
same,CNS-mediated side effects in PK studies,dogs,dizziness
same,EC50,[4],> 10 µM
same,mGlu5 agonistic activity,rat mGlu5 receptors; up to the highest concentration tested of 30 µM,lack of mGlu5 agonistic activity
same,"lowest active oral dose, reversal of AIH",[5],3 mg/kg
same,clearance,"in vivo PK study in rats; in vivo, 1 mg/kg",1.4 L/h/kg
same,brain AUC,in vivo PK study in rats; 0.5-7.0 h,12.7 µM-h
O=c1n(-c2ccc(F)cc2)ccc2nc(COc3ccccc3)cn12 [3e],EC50,mGlu3 [2],0.63 µM
same,IC50,CYP1A2,9.3 µM
same,IC50,CYP2D6,> 20 µM
same,IC50,CYP2C9,> 20 µM
same,EC50,[4],> 10 µM
same,IC50,CYP3A4,> 20 µM
Cc1cc(N2CCc3nc(COc4ccccc4)cn3C2=O)ccc1F [4c],fold increase in mGlu5 potency vs series 3 counterpart,rat mGlu5 receptors,1.8–2.4 fold
O=C1N(c2cccc(F)c2)CCc2nc(COc3ccccc3)cn21 [4b],fold increase in mGlu5 potency vs series 3 counterpart,rat mGlu5 receptors,1.8–2.4 fold
